Reference: US5053333A, “Protease” (M & D Research Co., Ltd., priority 1988, dated 1991)
“Also recorded” adds a separate entry of the source. Read-outs that look alike come from different tables or passages of the source. Ends that are not written are not given here. Peptide text beside a SMILES is read from it. * marks the point of attachment. AMC = Cc1cc(=O)oc2cc(N*)ccc12; Boc = CC(C)(C)OC(=O)*

Assays:
[1] = test system: Benz-I (protease specific for basic amino acid residue); assay: Cleavage of peptides by Benz-I, HPLC and amino acid composition of fragments; type: biochemical, Kluyveromyces lactis IFO 1903
Method: The composition of the employed reaction mixture and the examination conditions were as follows. Namely, 500 μl of a reaction mixture containing 25 μmol of tris hydrochloride buffer solution (pH 7.0), 0.25 μmol of CaCl2, 5 mg of Lubrol PX, 100 μg of NaN3, each peptide at various concentrations and Benz-I at various concentrations was allowed to react at 30° C. for 20 hours.
50-μl portions of the reaction mixture were sampled after the reaction for 0 and 20 hours and 50 μl of a reaction terminating agent comprising 0.2% of TFA and 10 mM of EDTA was added thereto. The resulting mixture was analyzed by HPLC. The HPLC was conducted by CH3 CN gradient elution with the use of an Ultron NC18 column (0.45×15 cm) or a TSK gel ODS-80TM column (0.46×25 cm) in the presence of 0.1% of TFA.
The residual reaction mixture was chromatographed under the same conditions as those employed in the above analysis and main peaks were fractionated. The fractionated eluate was evaporated to dryness on a centrifugal evaporator and decomposed with hydrochloric acid at 110° C. for 24 hours. Then each fragment was assumed from the amino acid composition.

[2] = test system: Benz-I (protease specific for basic amino acid residue); type: biochemical, Kluyveromyces lactis IFO 1903
Method: Benz-I was incubated in the presence of 10 mM of EDTA at 4° C. for one hour. When the enzyme was completely inactivated, the culture was dialyzed against 10 mM tris hydrochloride buffer solution (pH 7.0) containing 0.2% of Lubrol PX to thereby completely remove the EDTA. The enzyme mixture thus dialyzed was examined with respect to the recovery of the activity in reaction mixtures containing 0.5 mM of various metal ions.

[3] = test system: protease specific for basic amino acid residue from Sporobolomyces odrus IFO 1597; type: biochemical
Method: The enzyme was treated in the standard reaction mixture containing 1 mM of EDTA and free from any substrate at 25° C. for 30 minutes. Various metal ions were added thereto each in such an amount as to give a concentration of 1.5 mM and the mixture was incubated at 30° C. for five minutes. Then the activity of each case was determined.

[4] = test system: protease B; assay: Activation and inhibition of protease B (stated properties); type: biochemical, Kluyveromyces lactis IFO 1903
[5] = test system: Benz-I (protease specific for basic amino acid residue); assay: Behavior of Benz-I against various inhibitors (residual activity); type: biochemical, Kluyveromyces lactis IFO 1903; conditions: 25° C. 30 minutes, control lot = 100
[6] = test system: Benz-II (protease specific for basic amino acid residue); assay: Behavior of Benz-II against various inhibitors (residual activity); type: biochemical, Kluyveromyces lactis IFO 1903; conditions: 25° C. 30 minutes, control lot = 100
[7] = test system: protease specific for basic amino acid residue from Sporobolomyces odrus IFO 1597; assay: Behavior of Sporobolomyces protease against various inhibitors (residual activity); type: biochemical
[8] = test system: protease A; assay: Activation and inhibition of protease A (stated properties); type: biochemical, Sporobolomyces odrus IFO 1597
Method: The enzymes was incubated in the absence of any substrate in standard reaction mixtures containing various inhibitors at 25° C. for 30 minutes. After adding the substrate, the residual activity of each enzyme was determined.
The enzyme was reacted in the standard reaction mixture while varying the type and concentration of surfactants.
The activity of the enzyme was determined in the presence of 0.1% of EDTA while varying the concentration of CaCl2. […] The concentration of free CaCl2 was calculated from the apparent dissociation constant (K1) of EDTA for CaCl2 (log K1 =7.3).

[9] = test system: Benz-I (protease specific for basic amino acid residue); assay: Substrate specificity of Benz-I with fluorescent substrates; type: biochemical, Kluyveromyces lactis IFO 1903; conditions: activity for Boc-Gln-Arg-Arg-MCA being 100; standard conditions
Method: (§1) 1 ml of a reaction mixture containing 50 μmol of Tris-hydrochloride buffer (pH 7.0), 10 mg of Lubrol PX, 0.5 μmol of calcium chloride, 0.1 μmol of Boc-Gln-Arg-Arg-MCA, wherein Boc represents a t-butyloxycarbonyl group while MCA represents 4-methylcoumarin-7-amide and the enzyme is allowed to react at 30° C. The fluorescence (excition wavelength: 380 nm, emmision wavelength: 460 nm) originating from the 7-amino-4-methylcoumarin (AMC) thus formed is monitored with the lapse of time. The amount of the enzyme activity capable of catalyzing the release of 1 n mol of AMC per one minute is defined as 1 U. The specific activity is represented by U per mg of protein. The amount of the protein is determined by measurement the absorbance at […] as E^1% of protein being assumed to be 10.
(§2) The activities of Benz-I and Benz-II were determined under standard conditions with the use of various fluorescent substrates. The activity for each substrate was expressed by relative activity with the activity for Boc-Gln-Arg-Arg-MCA being 100.

[10] = test system: Benz-II (protease specific for basic amino acid residue); assay: Substrate specificity of Benz-II with fluorescent substrates; type: biochemical, Kluyveromyces lactis IFO 1903; conditions: activity for Boc-Gln-Arg-Arg-MCA being 100; standard conditions
Method: as §1, §2

[11] = test system: protease specific for basic amino acid residue from Sporobolomyces odrus IFO 1597; assay: Substrate specificity of Sporobolomyces protease with fluorescent substrates; type: biochemical; conditions: activity for Boc-Gln-Arg-Arg-MCA being 100; standard conditions
Method: A reaction mixture containing 50 μmol of tris hydrochloride buffer solution (pH 7.0), 10 mg of Lubrol PX, 0.5 μmol of calcium chloride, 0.1 μmol of Boc-Gln-Arg-Arg-MCA, wherein Boc represents a t-butyloxycalbonyl group while MCA represents 4-methylcoumarin-7-amide and the enzyme is allowed to react at 30° C. The fluorescence (excition wavelength: 380 nm, emission wavelength: 460 nm) originating from the 7-amino-4-methylcoumarin (AMC) thus formed is monitored. The amount of the enzyme capable of catalyzing the release of 1 nmol of AMC per one minute is defined as 1 U.
The activities of the enzyme for various fluorescent substrates were determined under standard reaction conditions.

[12] = Benz-I treated with 10 mM EDTA, dialyzed, reaction mixture with 0.5 mM metal ion, control lot = 100
[13] = EDTA treatment +, reaction system EDTA (1 mM) +, metal 1.5 mM, 30° C. five minutes
[14] = Ca2+ +, inhibitor 1 mM, 25° C. 30 minutes

Compound: YGGFMRRVGRPEWWMDYQKRYGGFL [3200-dalton Adrenal Peptide E]
- Fragment obtained (assumed from amino acid composition) after reaction with Benz-I [1]: ^1 Tyr-Gly-Gly-Phe-Met-Arg-^7 Arg; also recorded: ^21 Tyr-Gly-Gly-Phe-^25 Leu

Compound: [Cl][Ni][Cl] [nickel chloride]
- Relative activity [2, 12]: 16.1%
- Relative activity [3, 13]: 58%

Compound: N=C(N)c1ccc(CS(=O)(=O)F)cc1 [p-amidino-PMSF, p-amidinophenylmethanesulfonyl fluoride]
- inhibition of protease B ([4]; statement in words): inhibited
- Residual activity of Benz-I ([5]; inhibitor 1 mM): 0
- Residual activity of Benz-II ([6]; inhibitor 1 mM): 0
- relative activity (residual) [7, 14]: 10%
- inhibition of protease A ([8]; statement in words): inhibited

Compound: RKRSRKE [protein kinase-related peptide]
- Fragment obtained (assumed from amino acid composition) after reaction with Benz-I ([1]; 200 mU Benz-I, 50 nmol peptide, 30° C., 20 hours): Ser-Arg-Lys-Glu

Compound: O=C(O)CN(CCOCCOCCN(CC(=O)O)CC(=O)O)CC(=O)O [ethylene glycol bis(2-aminoethyl ether)tetraacetic acid]
- inhibition of protease B ([4]; statement in words): inhibited
- Residual activity of Benz-I ([5]; inhibitor 1 mM): 53
- Residual activity of Benz-I ([5]; inhibitor 5 mM): 12
- Residual activity of Benz-II ([6]; inhibitor 1 mM): 43
- Residual activity of Benz-II ([6]; inhibitor 5 mM): 12
- relative activity (residual) ([7]; Ca2+ --, inhibitor 1 mM, 25° C. 30 minutes): 10%
- inhibition of protease A ([8]; statement in words): inhibited

Compound: Tyr-Gly-Gly-Phe-Leu-Arg-Arg-Ile-Arg-Pro-Lys-Leu-Lys (YGGFLRRIRPKLK; printed: Tyr-Gly-Gly-Phe-Leu-Arg-Arg-Ile-Arg-Pro-Lys-Leu-Lys) [Dynorphin A (1-13)]
- Fragment obtained (assumed from amino acid composition) after reaction with Benz-I [1]: Ile-Arg-Pro-Lys-Leu-Lys; also recorded: Try-Gly-Gly-Phe-Leu-Arg-Arg

Compound: [Ca+2].[Cl-].[Cl-] [calcium chloride]
- activation of protease B ([4]; statement in words): activated
- Relative activity [2, 12]: 93.1%
- Relative activity [3, 13]: 107%
- activation of protease A ([8]; statement in words): best activated

Compound: Cc1cc(=O)oc2cc(NC(=O)[C@H](CCCCN)NC(=O)[C@H](CCCCN)NC(=O)[C@H](CCC(=O)O)NC(=O)OC(C)(C)C)ccc12 [Boc--Glu--Lys--Lys--MCA] (Boc-Glu-Lys-Lys-{AMC})
- Relative activity of Benz-I for substrate [9]: 1.3
- Relative activity of Benz-II for substrate [10]: 0.9
- Activity (relative) for substrate [11]: 0%

Compound: [Cl][Mn][Cl] [manganese chloride]
- Relative activity [2, 12]: 33.9%
- Relative activity [3, 13]: 53%

Compound: [Cl-].[Cl-].[Zn+2] [zinc chloride]
- inhibition of protease B ([4]; statement in words): inhibited
- Residual activity of Benz-I ([5]; inhibitor 1 mM): 7
- Residual activity of Benz-II ([6]; inhibitor 1 mM): 7
- relative activity (residual) [7, 14]: 1%
- inhibition of protease A ([8]; statement in words): inhibited

Compound: Cc1cc(=O)oc2cc(NC(=O)[C@H](CCCNC(=N)N)NC(=O)[C@H](CCCNC(=N)N)NC(=O)[C@H](CC(C)C)NC(=O)OC(C)(C)C)ccc12 [Boc--Leu--Arg--Arg--MCA] (Boc-Leu-Arg-Arg-{AMC})
- Relative activity of Benz-I for substrate [9]: 159
- Relative activity of Benz-II for substrate [10]: 156
- Activity (relative) for substrate [11]: 115%

Compound: Cc1cc(=O)oc2cc(NC(=O)[C@H](CCCNC(=N)N)NC(=O)[C@@H]3CCCN3C(=O)CNC(=O)[C@H](C)NC(=O)OC(C)(C)C)ccc12 [Boc--Ala--Gly--Pro--Arg--MCA] (Boc-AGPR-{AMC})
- Relative activity of Benz-I for substrate [9]: 1.9
- Relative activity of Benz-II for substrate [10]: 1.6
- Activity (relative) for substrate [11]: 1%

Compound: Cc1cc(=O)oc2cc(NC(=O)[C@H](CCCNC(=N)N)NC(=O)[C@H](CCCNC(=N)N)NC(=O)[C@H](CCC(N)=O)NC(=O)OC(C)(C)C)ccc12 [Boc--Gln--Arg--Arg--MCA, Boc-Gln-Arg-Arg-MCA] (Boc-Gln-Arg-Arg-{AMC})
- Relative activity of Benz-I for substrate [9]: 100
- Relative activity of Benz-II for substrate [10]: 100
- Activity (relative) for substrate [11]: 100%

Compound: Cc1cc(=O)oc2cc(NC(=O)[C@H](CCCNC(=N)N)NC(=O)[C@H](CCCCN)NC(=O)[C@H](CC(C)C)NC(=O)OC(C)(C)C)ccc12 [Boc--Leu--Lys--Arg--MCA] (Boc-Leu-Lys-Arg-{AMC})
- Relative activity of Benz-I for substrate [9]: 123
- Relative activity of Benz-II for substrate [10]: 127
- Activity (relative) for substrate [11]: 75%

Compound: Triton X-100
- activation of protease B ([4]; statement in words): activated
- activation of protease A ([8]; statement in words): activated

Compound: O=S(=O)([O-])[O-].[Cu+2] [copper sulfate]
- inhibition of protease B ([4]; statement in words): inhibited
- Residual activity of Benz-I ([5]; inhibitor 1 mM): 0.2
- Residual activity of Benz-II ([6]; inhibitor 1 mM): 0.6
- relative activity (residual) [7, 14]: 2%
- inhibition of protease A ([8]; statement in words): inhibited

Compound: O=C(O)CN(CCN(CC(=O)O)CC(=O)O)CC(=O)O [ethylenediaminetetraacetic acid]
- inhibition of protease B [4]: inhibited
- Relative activity [2]: 0.36%
- Relative activity ([2]; 10000 µM): 0.09%
- relative activity (residual) ([7]; pH 7, 30 min, 1000 µM): 2%
- Relative activity [3]: 3%
- Relative activity ([3]; pH 7, 1000 µM): 0%
- inhibition of protease A [8]: inhibited

Compound: [Cl-].[Cl-].[Mg+2] [magnesium chloride]
- Relative activity [2, 12]: 43.6%
- Relative activity [3, 13]: 12%

Compound: [Cl][Hg][Cl] [mercury chloride]
- inhibition of protease B ([4]; statement in words): inhibited
- Residual activity of Benz-I ([5]; inhibitor 1 mM): 0
- Residual activity of Benz-II ([6]; inhibitor 1 mM): 0
- relative activity (residual) [7, 14]: 0%
- inhibition of protease A ([8]; statement in words): inhibited

Compound: [Cl][Co][Cl] [cobalt chloride]
- Relative activity [2, 12]: 21.1%
- Relative activity [3, 13]: 57%

Compound: O=C(O)c1cc[c]([Hg][Cl])cc1 [p-chloromercuribenzoic acid]
- inhibition of protease B ([4]; statement in words): inhibited
- Residual activity of Benz-I ([5]; inhibitor 50 μM): 1
- Residual activity of Benz-II ([6]; inhibitor 50 μM): 3
- relative activity (residual) ([7]; Ca2+ +, inhibitor 50 μM, 25° C. 30 minutes): 36%
- inhibition of protease A ([8]; statement in words): inhibited

Compound: Cc1cc(=O)oc2cc(NC(=O)[C@H](CCCNC(=N)N)NC(=O)[C@@H](NC(=O)[C@H](CO)NC(=O)[C@H](CC(C)C)NC(=O)OC(C)(C)C)[C@@H](C)O)ccc12 [Boc--Leu--Ser--Thr--Arg--MCA] (Boc-LSTR-{AMC})
- Relative activity of Benz-I for substrate [9]: 127
- Relative activity of Benz-II for substrate [10]: 97.0
- Activity (relative) for substrate [11]: 2%
